# Measurements reported in US11046699B2, “Pyrazolo-pyrimidin-amino-cycloalkyl compounds and their therapeutic uses” (RAPT THERAPEUTICS, INC., priority 2018, dated 2021).
# Molecular target: GCN2 (Homo sapiens, UniProt Q9P2K8)
# Experiment: GCN2 enzymatic endpoint assay: phosphorylation of GFP-eIF2α measured by TR-FRET (Lanthascreen)
# Format: biochemical
# Conditions: tested as described in Example 77; compound and/or hydrochloride, dihydrochloride or trifluoroacetic acid salt; read-out: IC 50 Activity
# Outline: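 Kinase activity is measured as phosphorylation of GFP-labelled eIF2α (80 nM) with ATP at 2 μM. Incubation runs 90 minutes at room temperature before EDTA quench and terbium-antibody detection.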
# Sequence of GCN2 (Q9P2K8 whole entry): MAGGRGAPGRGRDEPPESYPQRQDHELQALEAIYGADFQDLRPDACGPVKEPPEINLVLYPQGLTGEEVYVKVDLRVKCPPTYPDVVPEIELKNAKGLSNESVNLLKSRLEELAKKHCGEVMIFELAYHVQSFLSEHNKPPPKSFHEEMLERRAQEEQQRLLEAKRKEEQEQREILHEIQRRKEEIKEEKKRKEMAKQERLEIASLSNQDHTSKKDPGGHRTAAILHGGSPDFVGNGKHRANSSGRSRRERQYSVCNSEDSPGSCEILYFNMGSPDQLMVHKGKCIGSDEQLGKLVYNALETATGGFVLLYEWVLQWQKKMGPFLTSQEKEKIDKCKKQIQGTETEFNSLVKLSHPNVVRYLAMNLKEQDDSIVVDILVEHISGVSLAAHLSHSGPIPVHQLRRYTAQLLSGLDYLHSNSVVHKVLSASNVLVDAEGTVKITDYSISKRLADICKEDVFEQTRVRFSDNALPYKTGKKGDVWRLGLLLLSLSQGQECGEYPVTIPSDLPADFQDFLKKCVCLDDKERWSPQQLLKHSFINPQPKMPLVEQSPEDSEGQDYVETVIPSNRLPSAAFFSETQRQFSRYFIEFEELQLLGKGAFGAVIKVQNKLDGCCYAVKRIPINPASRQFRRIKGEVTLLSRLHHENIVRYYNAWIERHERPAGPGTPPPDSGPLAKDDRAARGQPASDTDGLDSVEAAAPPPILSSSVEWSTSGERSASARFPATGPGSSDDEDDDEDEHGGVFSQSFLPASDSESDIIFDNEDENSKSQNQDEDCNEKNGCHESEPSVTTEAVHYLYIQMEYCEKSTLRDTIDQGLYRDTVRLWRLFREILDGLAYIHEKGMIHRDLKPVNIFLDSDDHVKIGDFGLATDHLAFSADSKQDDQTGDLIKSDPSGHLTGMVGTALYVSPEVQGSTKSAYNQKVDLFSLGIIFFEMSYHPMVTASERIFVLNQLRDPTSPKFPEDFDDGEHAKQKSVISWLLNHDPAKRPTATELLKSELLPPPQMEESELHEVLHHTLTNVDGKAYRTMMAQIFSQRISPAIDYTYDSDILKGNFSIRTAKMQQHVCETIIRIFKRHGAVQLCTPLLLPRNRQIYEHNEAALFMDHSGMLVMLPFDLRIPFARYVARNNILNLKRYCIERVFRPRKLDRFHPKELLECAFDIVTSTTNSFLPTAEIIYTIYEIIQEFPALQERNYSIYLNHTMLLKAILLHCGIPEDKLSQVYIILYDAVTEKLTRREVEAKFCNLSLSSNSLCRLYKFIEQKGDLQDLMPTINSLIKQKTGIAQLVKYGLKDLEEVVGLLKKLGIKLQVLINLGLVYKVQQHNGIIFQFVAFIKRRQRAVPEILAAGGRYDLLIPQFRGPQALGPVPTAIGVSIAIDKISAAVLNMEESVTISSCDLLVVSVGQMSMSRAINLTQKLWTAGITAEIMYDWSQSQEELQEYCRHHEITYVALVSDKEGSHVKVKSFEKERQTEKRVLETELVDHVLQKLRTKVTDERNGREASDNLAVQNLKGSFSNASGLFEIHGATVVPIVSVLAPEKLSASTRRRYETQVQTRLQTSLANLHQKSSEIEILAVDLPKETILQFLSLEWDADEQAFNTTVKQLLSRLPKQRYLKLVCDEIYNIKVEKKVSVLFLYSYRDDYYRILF
row,Structure (SMILES),IC50 [nM]
1,"CNC(=O)[C@]1(C)CC[C@@H](Nc2ncc3c(Br)nn(-c4ccc(-c5nnc(C(=O)N(C)CCN(C)C)s5)cc4)c3n2)C1 [5-[4-[3-bromo-6-[[(1R,3R)-3-methyl-3-(methylcarbamoyl)cyclopentyl]amino]pyrazolo[3,4-d]pyrimidin-1-yl]phenyl]-N-[2-(dimethylamino)ethyl]-N-methyl-1,3,4-thiadiazole-2-carboxamide]",25 to 200
2,"CN1CN(C(=O)[C@]2(C)CC[C@@H](Nc3ncc4c(Br)nn(-c5cc(F)c6ncccc6c5)c4n3)C2)CC1=O [1-[(1R,3R)-3-[[3-bromo-1-(8-fluoro-6-quinolyl)pyrazolo[3,4-d]pyrimidin-6-yl]amino]-1-methyl-cyclopentanecarbonyl]-3-methyl-imidazolidin-4-one]",< 25
3,CNC(=O)[C@]1(C)CC[C@@H](Nc2ncc3c(Br)nn(-c4cc(Br)cc(C(C)O)c4)c3n2)C1 (stereo partly shown),25 to 200
4,"COCCN1CN(C(=O)C2(C)CC[C@@H](Nc3ncc4c(Br)nn(-c5cc(F)c6ncccc6c5)c4n3)C2)CC1=O (stereo partly drawn) [1-[(3R)-3-[[3-bromo-1-(8-fluoro-6-quinolyl)pyrazolo[3,4-d]pyrimidin-6-yl]amino]-1-methyl-cyclopentanecarbonyl]-3-(2-methoxyethyl)imidazolidin-4-one]",< 25
5,"CNC(=O)[C@]1(C)CC[C@@H](Nc2ncc3c(Br)nn(-c4ccc5ncncc5c4)c3n2)C1 [(1R,3R)-3-[(3-bromo-1-quinazolin-6-yl-pyrazolo[3,4-d]pyrimidin-6-yl)amino]-N,1-dimethyl-cyclopentane-carboxamide]",25 to 200
6,CS(=O)(=O)CCNC(=O)[C@@H]1CC[C@@H](Nc2ncc3c(Br)nn(-c4ccc5ncc(F)cc5c4)c3n2)C1,200 to 500
7,Cc1nnc(-c2ccc(-n3nc(Br)c4cnc(NC5CCC(CN(C)C)(C(=O)O)C5)nc43)cc2)s1 (stereo not shown),25 to 200
8,"CNC(=O)[C@]1(C)CC[C@@H](Nc2ncc3c(Br)nn(-c4ccc(-c5ncco5)c(CCN)c4)c3n2)C1 [(1R,3R)-3-[[1-[3-(2-aminoethyl)-4-oxazol-2-yl-phenyl]-3-bromo-pyrazolo[3,4-d]pyrimidin-6-yl]amino]-N,1-dimethyl-cyclopentanecarboxamide]",25 to 200
9,CNC(=O)C1(CC#N)CC[C@@H](Nc2ncc3c(Br)nn(-c4ccc(-c5nnc(C)s5)c(CCC#N)c4)c3n2)C1 (stereo partly shown),25 to 200
10,CNC(=O)[C@]1(C)CC[C@@H](Nc2ncc3c(Br)nn(-c4cc(Cl)cc(CCNS(C)(=O)=O)c4)c3n2)C1,25 to 200
11,Cc1nnc(-c2ccc(-n3nc(Br)c4cnc(N[C@@H]5CC[C@@](C)(C(=O)N6CCP(C)(=O)CC6)C5)nc43)cc2)s1,25 to 200

# More lines, now with the values ahead:
row,IC50 [nM],Structure (SMILES)
1,25 to 200,"CNC(=O)[C@]1(C)CC[C@@H](Nc2ncc3c(Br)nn(-c4ccc(-c5nnc(C)s5)c(CCO)c4)c3n2)C1 [(1R,3R)-3-[[3-bromo-1-[3-(2-hydroxyethyl)-4-(5-methyl-1,3,4-thiadiazol-2-yl)phenyl]pyrazolo[3,4-d]pyrimidin-6-yl]amino]-N,1-dimethyl-cyclopentanecarboxamide]"
2,25 to 200,"CNC(=O)[C@]1(C)CC[C@@H](Nc2ncc3c(Br)nn(-c4cc(CNS(C)(=O)=O)c5nccnc5c4)c3n2)C1 [(1R,3R)-3-[[3-bromo-1-[8-(methane-sulfonamidomethyl)quinoxalin-6-yl]pyrazolo[3,4-d]pyrimidin-6-yl]amino]-N,1-dimethyl-cyclopentanecarboxamide]"
3,25 to 200,"O=C([C@@H]1CC[C@@H](Nc2ncc3c(Br)nn(-c4ccc5ncccc5c4)c3n2)C1)N1CCOCC1 [((1R,3R)-3-((3-bromo-1-(quinolin-6-yl)-1H-pyrazolo[3,4-d]pyrimidin-6-yl)amino)cyclo-pentyl)(morpholino)methanone]"
4,25 to 200,"CNC(=O)[C@]1(C)CC[C@@H](Nc2ncc3c(Br)nn(-c4ccc(-c5nnc(C)s5)c(CC(C)O)c4)c3n2)C1 (stereo partly drawn) [(1R,3R)-3-[[3-bromo-1-[3-(2-hydroxypropyl)-4-(5-methyl-1,3,4-thiadiazol-2-yl)phenyl]pyrazolo[3,4-d]pyrimidin-6-yl]amino]-N,1-dimethyl-cyclopentanecarboxamide]"
5,200 to 500,"O=C([C@@H]1CC[C@@H](Nc2ncc3c(Br)nn(-c4ccc5ncccc5c4)c3n2)C1)N1CCC2(CCCCO2)C1 (stereo partly drawn) [((1R,3R)-3-((3-bromo-1-(quinolin-6-yl)-1H-pyrazolo[3,4-d]pyrimidin-6-yl)amino)cyclopentyl)(6-oxa-2-azaspiro[4.5]decan-2-yl)methanone]"
6,25 to 200,"CNC(=O)[C@]1(C)CC[C@@H](Nc2ncc3c(Br)nn(-c4cc(CO)c5nccnc5c4)c3n2)C1 [(1R,3R)-3-[[3-bromo-1-[8-(hydroxymethyl)quinoxalin-6-yl]pyrazolo[3,4-d]pyrimidin-6-yl]amino]-N,1-dimethyl-cyclopentane-carboxamide]"
7,25 to 200,"CNC(=O)[C@]1(C)CC[C@@H](Nc2ncc3c(Br)nn(-c4ccc(-c5nnc(C(F)F)o5)cc4)c3n2)C1 [(1R,3R)-3-[[3-bromo-1-[4-[5-(difluoro-methyl)-1,3,4-oxadiazol-2-yl]phenyl]pyrazolo[3,4-d]pyrimidin-6-yl]amino]-N,1-dimethyl-cyclopentanecarboxamide]"
8,25 to 200,"CNC(=O)[C@]1(C)CC[C@@H](Nc2ncc3c(Br)nn(-c4ccc5nccc(=O)n5c4)c3n2)C1 [(1R,3R)-3-[[3-bromo-1-(4-oxopyrido [1,2-a]pyrimidin-7-yl)pyrazolo[3,4-d]pyrimidin-6-yl]amino]-N,1-dimethyl-cyclopentanecarboxamide]"
9,25 to 200,"CNC(=O)[C@]1(CO)CC[C@@H](Nc2ncc3c(Br)nn(-c4ccc(-c5nnc(C)s5)c(CCC#N)c4)c3n2)C1 [(1R,3R)-3-[[3-bromo-1-[3-(2-cyanoethyl)-4-(5-methyl-1,3,4-thiadiazol-2-yl)phenyl]pyrazolo[3,4-d]pyrimidin-6-yl]amino]-1-(hydroxymethyl)-N-methyl-cyclopentane-carboxamide]"
10,< 25,"O=C([C@@H]1CC[C@@H](Nc2ncc3c(Br)nn(-c4ccc5ncccc5c4)c3n2)C1)N1CCC2(CNC2)C1 [((1R,3R)-3-((3-bromo-1-(quinolin-6-yl)-1H-pyrazolo[3,4-d]pyrimidin-6-yl)amino)cyclo-pentyl)(2,6-diazaspiro[3.4]octan-6-yl) methanone]"
11,25 to 200,"CNC(=O)[C@@H]1CC[C@@H](Nc2ncc3c(Br)nn(-c4ccc5nc(OC)ccc5c4)c3n2)C1 [(1R,3R)-3-[[3-bromo-1-(2-methoxy-6-quinolyl)pyrazolo[3,4-d]pyrimidin-6-yl]amino]-N-methyl-cyclopentanecarboxamide]"
12,25 to 200,"C[C@H]1CN(C(=O)[C@@H]2CC[C@@H](Nc3ncc4c(Br)nn(-c5ccc6ncccc6c5)c4n3)C2)CCO1 [((1R,3R)-3-((3-bromo-1-(quinolin-6-yl)-1H-pyrazolo[3,4-d]pyrimidin-6-yl)amino)cyclo-pentyl)((S)-2-methylmorpholino)methanone]"
13,25 to 200,"CNC(=O)[C@]1(C)CC[C@@H](Nc2ncc3c(Br)nn(-c4ccc(-c5ncco5)c(CC(=O)N(C)C)c4)c3n2)C1 [(1R,3R)-3-[[3-bromo-1-[3-[2-(dimethylamino)-2-oxo-ethyl]-4-oxazol-2-yl-phenyl]pyrazolo [3,4-d]pyrimidin-6-yl]amino]-N,1-dimethyl-cyclopentanecarboxamide]"
14,25 to 200,"CNC(=O)[C@@]1(C)CC[C@@H](Nc2ncc3c(Br)nn(-c4cc(C#N)c5ncccc5c4)c3n2)C1 [(1S,3R)-3-((3-bromo-1-(8-cyanoquinolin-6-yl)-1H-pyrazolo[3,4-d]pyrimidin-6-yl)amino)-N,1-dimethylcyclopentane-1-carboxamide]"
